# Reference: US9375013B2, “Herbicidal composition” (ISHIHARA SANGYO KAISHA, LTD., priority 2013, dated 2016)
# What was measured:
# Type in all cases: in vivo
# [1] = tested on: ivy-leaved morningglory (Ipomoea hederacea (L.) Jacq.); experiment: Test Example 2: pot soil treatment, growth inhibition of ivy-leaved morningglory; conditions: 22nd day after treatment, read-out: Growth inhibition rate (%) of ivy-leaved morningglory, Measured value
# Excerpt: (§1) On the 14th day after treatment, the state of growth of the summergrass was visually observed to determine the growth inhibition rate in accordance with the following evaluation standard. The growth inhibition rate (%) (measured value) and the growth inhibition rate (%) (calculated value) calculated by the Colby's formula are shown in Table 1. Growth inhibition rate (%)=0 (equivalent to the non-treated area) to 100 (complete kill) Upland field soil was put into a 1/160,000 ha pot, and seeds of ivy-leaved morningglory (Ipomoea hederacea (L.) Jacq.) were sown. On the next day, predetermined amounts of flazasulfuron and hexazinone were diluted with water (in an amount corresponding to 300 L/ha), and applied for soil treatment by a small sprayer. On the 22nd day after treatment, the state of growth of the ivy-leaved morningglory was visually observed to determine the growth inhibition rate. The growth inhibition rate (%) (measured value) and the growth inhibition rate (%) calculated in the same manner as in Test Example 1 are shown in Table 2.
# [2] = tested on: field bindweed (Convolvulus arvensis L.); experiment: Test Example 5: pot soil treatment, growth inhibition of field bindweed; conditions: dose 300 g/ha, 22nd day after treatment, read-out: Growth inhibition rate (%) of field bindweed, Measured value
# Excerpt: as §1, with “field bindweed (Convolvulus arvensis L.)” for “ivy-leaved morningglory (Ipomoea hederacea (L.) Jacq.)”, “field bindweed” for “ivy-leaved morningglory”, “5.” for “2.”
# [3] = tested on: shattercane (Sorghum bicolor (L.) Moench.); experiment: Test Example 6: pot soil treatment, growth inhibition of shattercane; conditions: dose 100 g/ha, 22nd day after treatment, read-out: Growth inhibition rate (%) of shattercane, Measured value
# Excerpt: On the 14th day after treatment, the state of growth of the summergrass was visually observed to determine the growth inhibition rate in accordance with the following evaluation standard. The growth inhibition rate (%) (measured value) and the growth inhibition rate (%) (calculated value) calculated by the Colby's formula are shown in Table 1. Growth inhibition rate (%)=0 (equivalent to the non-treated area) to 100 (complete kill)
# Upland field soil was put into a 1/160,000 ha pot, and seeds of shattercane (Sorghum bicolor (L.) Moench.) were sown. On the next day, predetermined amounts of flazasulfuron and hexazinone were diluted with water (in an amount corresponding to 300 L/ha), and applied for soil treatment by a small sprayer.
# On the 22nd day after treatment, the state of growth of the shattercane was visually observed to determine the growth inhibition rate. The growth inhibition rate (%) (measured value) and the growth inhibition rate (%) calculated in the same manner as in Test Example 1 are shown in Table 6.
# [4] = tested on: barnyardgrass (Echinochloa crus-galli L); experiment: Test Example 9: pot soil treatment, growth inhibition of barnyardgrass; conditions: dose 100 g/ha, 21st day after treatment, read-out: Growth inhibition rate (%) of barnyardgrass, Measured value
# Excerpt: as §1, with “barnyardgrass (Echinochloa crus-galli L)” for “ivy-leaved morningglory (Ipomoea hederacea (L.) Jacq.)”, “21st” for “22nd”, “barnyardgrass” for “ivy-leaved morningglory”, “9.” for “2.”
# [5] = tested on: persian speedwell (Veronica persica Poiret.); experiment: Test Example 10: pot soil treatment, growth inhibition of persian speedwell; conditions: dose 100 g/ha, 21st day after treatment, read-out: Growth inhibition rate (%) of persian speedwell, Measured value
# [6] = tested on: velvetleaf (Abutilon theophrasti MEDIC.); experiment: Test Example 14: pot soil treatment, growth inhibition of velvetleaf; conditions: dose 200 g/ha, 21st day after treatment, read-out: Growth inhibition rate (%) of velvetleaf, Measured value
# Excerpt: as §1, with “velvetleaf (Abutilon theophrasti MEDIC.)” for “ivy-leaved morningglory (Ipomoea hederacea (L.) Jacq.)”, “21st” for “22nd”, “velvetleaf” for “ivy-leaved morningglory”, “14.” for “2.”
# [7] = tested on: summergrass (Digitaria ciliaris (Retz.) Koeler); experiment: Test Example 1: pot soil treatment, growth inhibition of summergrass; conditions: dose 150 g/ha, 14th day after treatment, read-out: Growth inhibition rate (%) of summergrass, Measured value
# Protocol: Upland field soil was put into a 1/160,000 ha pot, and seeds of summergrass (Digitaria ciliaris (Retz.) Koeler) were sown. On the next day, predetermined amounts of flazasulfuron and imazapic were diluted with water (in an amount corresponding to 300 L/ha), and applied for soil treatment by a small sprayer. On the 14th day after treatment, the state of growth of the summergrass was visually observed to determine the growth inhibition rate in accordance with the following evaluation standard. The growth inhibition rate (%) (measured value) and the growth inhibition rate (%) (calculated value) calculated by the Colby's formula are shown in Table 1. Growth inhibition rate (%)=0 (equivalent to the non-treated area) to 100 (complete kill)
# [8] = tested on: wild oat (Avena fatua L.); experiment: Test Example 3: pot soil treatment, growth inhibition of wild oat; conditions: 22nd day after treatment, read-out: Growth inhibition rate (%) of wild oat, Measured value
# Excerpt: as §1, with “wild oat (Avena fatua L.)” for “ivy-leaved morningglory (Ipomoea hederacea (L.) Jacq.)”, “flazasulfuron, mesotrione” for “flazasulfuron”, “imazapic” for “hexazinone”, “wild oat” for “ivy-leaved morningglory”, “3.” for “2.”
# [9] = tested on: persian speedwell (Veronica persica Poir.); experiment: Test Example 8: pot soil treatment, growth inhibition of persian speedwell; conditions: 21st day after treatment, read-out: Growth inhibition rate (%) of persian speedwell, Measured value
# [10] = tested on: common ragweed (Ambrosia artemisiifolia L.); experiment: Test Example 11: pot soil treatment, growth inhibition of common ragweed; conditions: dose 150 g/ha, 21st day after treatment, read-out: Growth inhibition rate (%) of common ragweed, Measured value
# Excerpt: as §1, with “common ragweed (Ambrosia artemisiifolia L.)” for “ivy-leaved morningglory (Ipomoea hederacea (L.) Jacq.)”, “imazapic” for “hexazinone”, “21st” for “22nd”, “common ragweed” for “ivy-leaved morningglory”, “11.” for “2.”
# [11] = tested on: common lespedeza (Lespedeza striata (Thunb.) Hook. et Arn.); experiment: Test Example 12: pot soil treatment, growth inhibition of common lespedeza; conditions: Kummerowia striata, dose 50 g/ha, 21st day after treatment, read-out: Growth inhibition rate (%) of common lespedeza, Measured value
# Excerpt: as §1, with “common lespedeza (Lespedeza striata (Thunb.) Hook. et Arn.)” for “ivy-leaved morningglory (Ipomoea hederacea (L.) Jacq.)”, “imazapic” for “hexazinone”, “21st” for “22nd”, “common lespedeza” for “ivy-leaved morningglory”, “12.” for “2.”
# [12] = tested on: velvetleaf (Abutilon theophrasti MEDIC.); experiment: Test Example 13: pot soil treatment, growth inhibition of velvetleaf; conditions: dose 50 g/ha, 21st day after treatment, read-out: Growth inhibition rate (%) of velvetleaf, Measured value
# [13] = tested on: field bindweed (Convolvulus arvensis L.); experiment: Test Example 15: pot soil treatment, growth inhibition of field bindweed; conditions: 21st day after treatment, read-out: Growth inhibition rate (%) of field bindweed, Measured value
# Excerpt: as §1, with “field bindweed (Convolvulus arvensis L.)” for “ivy-leaved morningglory (Ipomoea hederacea (L.) Jacq.)”, “flazasulfuron, mesotrione” for “flazasulfuron”, “imazapic” for “hexazinone”, “21st” for “22nd”, “field bindweed” for “ivy-leaved morningglory”, “15.” for “2.”
# [14] = tested on: guinea grass (Panicum maximum Jacq.); experiment: Test Example 4: pot soil treatment, growth inhibition of guinea grass; conditions: Megathyrsus maximus, dose 200 g/ha, 22nd day after treatment, read-out: Growth inhibition rate (%) of guinea grass, Measured value
# Excerpt: as §1, with “guinea grass (Panicum maximum” for “ivy-leaved morningglory (Ipomoea hederacea (L.)”, “mesotrione” for “hexazinone”, “guinea grass” for “ivy-leaved morningglory”, “4.” for “2.”
# [15] = tested on: rostrate sesbania(Sesbania rostrata Bremek. & Oberm.); experiment: Test Example 7: pot soil treatment, growth inhibition of rostrate sesbania; conditions: 22nd day after treatment, read-out: Growth inhibition rate (%) of rostrate sesbania, Measured value
structure (smiles),measurement,setting,value
"CN(C)c1nc(=O)n(C2CCCCC2)c(=O)n1C [Hexazinone, hexazinone]",inhibition at 100 g/ha,[1]; dose 100 g/ha,0%
same,inhibition at 200 g/ha,[1]; dose 200 g/ha,30%
same,inhibition at 300 g/ha,[1]; dose 300 g/ha,40%
same,inhibition at 300 g/ha,[2],15%
same,inhibition at 100 g/ha,[3],0%
same,inhibition at 100 g/ha,[4],0%
same,inhibition at 100 g/ha,[5],85%
same,inhibition at 200 g/ha,[6],30%
"Cc1cnc(C2=NC(=O)C(C)(C(C)C)N2)c(C(=O)O)c1 (stereo not drawn) [Imazapic, imazapic]",inhibition at 150 g/ha,[7],50%
same,inhibition at 100 g/ha,[8]; dose 100 g/ha,40%
same,inhibition at 150 g/ha,[8]; dose 150 g/ha,60%
same,inhibition at 50 g/ha,[9],50%
same,inhibition at 150 g/ha,[10],60%
same,inhibition at 50 g/ha,[11],0%
same,inhibition at 50 g/ha,[12],30%
same,inhibition at 150 g/ha,[13]; dose 150 g/ha,15%
"CS(=O)(=O)c1ccc(C(=O)C2C(=O)CCCC2=O)c([N+](=O)[O-])c1 [Mesotrione, mesotrione]",inhibition at 50 g/ha,[8]; dose 50 g/ha,40%
same,inhibition at 200 g/ha,[8]; dose 200 g/ha,0%
same,inhibition at 200 g/ha,[14],0%
same,inhibition at 50 g/ha,[15],15%
same,inhibition at 200 g/ha,[13]; dose 200 g/ha,60%
